These results are taken from patent US20190076436A1, “MACROCYCLIC COMPOUNDS AS ROS1 KINASE INHIBITORS” (Array BioPharma Inc., priority 2017, published 2019).

Format in all cases: biochemical
For one assay, the target named is D2033N ROS1 (Homo sapiens, UniProt P08922, D2033N). Nature of the assay: Inhibition of D2033N ROS1 kinase, CisBio HTRF KinEASE-TK assay. How it is done: (§1) The potency of a compound inhibiting wild type and exemplary mutant ROS1 kinases was determined using CisBio's HTRF Kinease-TK assay technology. […] No. […] No. […] Each kinase is incubated with 250 nM TK-substrate biotin (CisBio, Cat. No. 62TKOPEC) and 1 mM ATP along with test compound in a buffer consisting of 25 mM MOPS [pH 7.4], 5 mM MgCl2, 0.005% Triton X-100, and 2% DMSO in a volume of 8 μL. […] After a 1 hour incubation at 22° C., the extent of reaction was determined using a PerkinElmer EnVision multimode plate reader via HTRF dual wavelength detection, and the percent of control (POC) was calculated using a ratiometric emission factor. 100 POC is determined using no test compound and 0 POC is determined in the absence of enzyme.
Background: TR-FRET usually uses a lanthanide donor and a delayed reading to cut background.

For another assay, the target named is wild type ROS1 (Homo sapiens, UniProt P08922). Nature of the assay: Inhibition of wild type ROS1 kinase, CisBio HTRF KinEASE-TK assay. Particulars: read-out: ROS1 wT IC50. How it is done: as §1
The target of a further assay is G2032R ROS1 (Homo sapiens, UniProt P08922, G2032R). Nature of the assay: Inhibition of G2032R ROS1 kinase, CisBio HTRF KinEASE-TK assay. How it is done: as §1
The target in the next assay is L2026M ROS1 (Homo sapiens, UniProt P08922, L2026M). The assay is described as follows: Inhibition of L2026M ROS1 kinase, CisBio HTRF KinEASE-TK assay. How it is done:
as §1

What is called IC50 is the concentration that inhibits the measured activity by half.

Sequence of G2032R ROS1 (P08922 1883-2347 G2032R limits assumed): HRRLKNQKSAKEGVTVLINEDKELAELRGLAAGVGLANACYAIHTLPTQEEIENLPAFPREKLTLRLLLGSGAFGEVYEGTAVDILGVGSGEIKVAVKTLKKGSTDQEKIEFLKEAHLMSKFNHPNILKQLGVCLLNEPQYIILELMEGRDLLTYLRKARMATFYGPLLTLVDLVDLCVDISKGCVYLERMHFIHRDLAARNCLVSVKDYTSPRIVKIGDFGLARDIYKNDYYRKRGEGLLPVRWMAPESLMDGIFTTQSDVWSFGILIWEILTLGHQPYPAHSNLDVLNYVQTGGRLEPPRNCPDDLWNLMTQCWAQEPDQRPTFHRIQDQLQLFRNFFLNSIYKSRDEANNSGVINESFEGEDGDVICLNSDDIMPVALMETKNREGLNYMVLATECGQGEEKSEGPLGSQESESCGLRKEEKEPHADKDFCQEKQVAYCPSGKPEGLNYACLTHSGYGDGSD
Sequence of L2026M ROS1 (P08922 28-2347 L2026M): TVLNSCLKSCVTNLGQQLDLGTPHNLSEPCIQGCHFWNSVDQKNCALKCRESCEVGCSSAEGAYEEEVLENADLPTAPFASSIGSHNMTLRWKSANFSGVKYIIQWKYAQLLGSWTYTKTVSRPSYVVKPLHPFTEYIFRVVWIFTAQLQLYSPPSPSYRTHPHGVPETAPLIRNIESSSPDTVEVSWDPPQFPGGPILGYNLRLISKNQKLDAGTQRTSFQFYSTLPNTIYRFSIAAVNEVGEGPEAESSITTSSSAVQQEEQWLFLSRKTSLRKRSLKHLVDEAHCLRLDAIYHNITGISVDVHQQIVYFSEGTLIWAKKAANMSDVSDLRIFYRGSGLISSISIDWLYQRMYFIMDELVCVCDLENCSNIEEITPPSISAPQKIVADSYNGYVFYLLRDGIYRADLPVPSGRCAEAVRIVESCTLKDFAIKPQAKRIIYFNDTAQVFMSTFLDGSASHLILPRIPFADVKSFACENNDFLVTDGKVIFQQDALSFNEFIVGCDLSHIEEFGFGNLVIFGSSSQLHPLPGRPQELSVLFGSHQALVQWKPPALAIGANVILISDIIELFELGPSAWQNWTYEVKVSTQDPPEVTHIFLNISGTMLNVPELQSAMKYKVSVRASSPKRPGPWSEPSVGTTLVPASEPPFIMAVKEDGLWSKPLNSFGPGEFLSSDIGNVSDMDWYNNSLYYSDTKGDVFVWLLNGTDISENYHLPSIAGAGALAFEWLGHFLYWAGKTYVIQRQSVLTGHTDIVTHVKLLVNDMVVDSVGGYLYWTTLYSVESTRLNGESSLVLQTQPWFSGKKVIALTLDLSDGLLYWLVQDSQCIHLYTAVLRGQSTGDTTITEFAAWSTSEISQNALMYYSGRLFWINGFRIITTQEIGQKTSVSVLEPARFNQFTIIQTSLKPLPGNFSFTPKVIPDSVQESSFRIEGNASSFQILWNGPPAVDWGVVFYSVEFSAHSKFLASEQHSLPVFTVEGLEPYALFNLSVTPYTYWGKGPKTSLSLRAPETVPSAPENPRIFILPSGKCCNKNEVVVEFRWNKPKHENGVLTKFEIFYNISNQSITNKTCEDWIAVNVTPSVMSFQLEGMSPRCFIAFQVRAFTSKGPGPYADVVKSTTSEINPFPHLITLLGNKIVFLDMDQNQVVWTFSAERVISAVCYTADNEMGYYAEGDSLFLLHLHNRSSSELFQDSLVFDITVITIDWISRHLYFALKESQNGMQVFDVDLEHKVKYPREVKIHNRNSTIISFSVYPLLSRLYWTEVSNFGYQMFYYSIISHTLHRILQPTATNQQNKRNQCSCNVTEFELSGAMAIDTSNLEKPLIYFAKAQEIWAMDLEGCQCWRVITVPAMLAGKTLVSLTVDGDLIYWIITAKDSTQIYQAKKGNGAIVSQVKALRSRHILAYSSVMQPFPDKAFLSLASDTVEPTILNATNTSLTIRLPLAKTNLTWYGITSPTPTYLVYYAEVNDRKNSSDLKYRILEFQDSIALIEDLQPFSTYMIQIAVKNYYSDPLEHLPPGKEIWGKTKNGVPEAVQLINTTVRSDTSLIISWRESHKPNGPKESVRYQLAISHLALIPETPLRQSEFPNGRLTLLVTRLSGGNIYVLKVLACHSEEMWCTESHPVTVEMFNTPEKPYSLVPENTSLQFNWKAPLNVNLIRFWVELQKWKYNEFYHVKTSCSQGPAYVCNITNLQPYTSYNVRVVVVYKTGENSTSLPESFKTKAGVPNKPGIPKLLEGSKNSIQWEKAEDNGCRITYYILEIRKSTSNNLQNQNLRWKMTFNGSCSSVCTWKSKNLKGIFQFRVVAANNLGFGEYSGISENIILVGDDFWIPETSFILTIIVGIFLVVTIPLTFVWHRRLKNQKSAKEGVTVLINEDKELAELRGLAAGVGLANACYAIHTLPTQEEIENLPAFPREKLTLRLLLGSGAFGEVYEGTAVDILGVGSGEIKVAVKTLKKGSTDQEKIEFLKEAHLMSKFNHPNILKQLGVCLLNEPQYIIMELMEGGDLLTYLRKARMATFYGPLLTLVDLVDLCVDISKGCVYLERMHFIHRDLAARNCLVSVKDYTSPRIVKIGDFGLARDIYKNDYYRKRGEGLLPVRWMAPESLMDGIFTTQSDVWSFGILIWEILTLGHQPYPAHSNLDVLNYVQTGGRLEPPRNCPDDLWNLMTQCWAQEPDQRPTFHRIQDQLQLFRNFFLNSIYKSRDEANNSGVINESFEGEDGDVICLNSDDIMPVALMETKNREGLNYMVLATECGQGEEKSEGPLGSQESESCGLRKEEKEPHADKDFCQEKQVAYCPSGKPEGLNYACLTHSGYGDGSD
Sequence of D2033N ROS1 (P08922 28-2347 D2033N): as the sequence (P08922 28-2347 L2026M) above, with M1999L, D2006N counted along it
Sequence of wild type ROS1 (P08922 1883-2347 limits assumed): as the sequence (P08922 1883-2347 G2032R limits assumed) above, with R150G counted along it

Consider `O=C1NC[C@H](O)COc2ccc(F)cc2C2CC(F)(F)CN2c2ccn3ncc1c3n2` (single isomer, unassigned) [Compound 45], for which the IC50 amounted to 16.8 nM against D2033N ROS1, 6.1 nM at wild type ROS1, 114 nM on G2032R ROS1 and 4.6 nM at L2026M ROS1.
For `O=C1NCCCOc2cccc(n2)[C@H]2CCCN2c2ccn3ncc1c3n2` [Compound 2, (6R)-12-oxa-2,16,20,21,24,26-hexaazapentacyclo[16.5.2.1^7,11.0^2,6.0^21,25] hexacosa-1(24),7(26),8,10,18(25),19,22-heptaen-17-one] the same measures were 11.9 nM, 80.3 nM, 1060 nM and 67 nM.
As for `O=C1NCCCOc2ncc(F)cc2[C@H]2CCCN2c2ccn3ncc1c3n2` [Compound 3, (6R)-9-fluoro-13-oxa-2,11,17,21,22,25-hexaazapentacyclo[17.5.2.0^2,6.0^7,12.0^22,26] hexacosa-1(25),7,9,11,19(26),20,23-heptaen-18-one], the IC50 at D2033N ROS1 amounted to 0.3 nM; on wild type ROS1, 1.2 nM; on G2032R ROS1 it was 9.4 nM; at L2026M ROS1 it was 1.2 nM.
With `O=C1NC[C@@H](O)COc2ncc(F)cc2[C@H]2CCCN2c2ccn3ncc1c3n2` [Compound 7, (6R,15R)-9-fluoro-15-hydroxy-13-oxa-2,11,17,21,22,25-hexaazapentacyclo-[17.5.2.0^2,6.0^7,12.0^22,26]hexacosa-1(25),7,9,11,19(26),20,23-heptaen-18-one], the IC50 on D2033N ROS1 is 0.6 nM; on wild type ROS1 it was 3.1 nM; against G2032R ROS1, 29.2 nM; on L2026M ROS1 it was 2.9 nM.
As to `O=C1NCCOc2ncc(F)cc2[C@H]2CCCN2c2ccn3ncc1c3n2` [Compound 9, (6R)-9-fluoro-13-oxa-2,11,16,20,21,24-hexaazapentacyclo[16.5.2.0^2,6.0^7,12.0^21,25] pentacosa-1(24),7,9,11,18(25),19,22-heptaen-17-one], the IC50 on D2033N ROS1 was determined as 1.7 nM; at wild type ROS1, 9.2 nM; against G2032R ROS1 it was 98.6 nM; against L2026M ROS1, 10.2 nM.
Taken in the same sequence, the figures for `O=C1OCCOc2ncc(F)cc2[C@H]2CCCN2c2ccn3ncc1c3n2` [Compound 14] were 7.6 nM, 28.9 nM, 107 nM and 30.3 nM.
`O=C1NCC(F)(F)COc2ncc(F)cc2[C@H]2CCCN2c2ccn3ncc1c3n2` [Compound 19, (6R)-9,15,15-trifluoro-13-oxa-2,11,17,21,22,25-hexaazapentacyclo[17.5.2.0^2,6.0^7,12.0^22,26] hexacosa-1(25),7,9,11,19(26),20,23-heptaen-18-one]: the IC50 was determined as 1.2 nM on D2033N ROS1, 2.4 nM on wild type ROS1, 14.4 nM on G2032R ROS1 and 2.4 nM against L2026M ROS1.
`O=C1NCCCOc2ccc(F)cc2[C@H]2CCCN2c2ccn3ncc1c3n2` [Compound 20, (6R)-9-fluoro-13-oxa-2,17,21,22,25-pentaazapentacyclo[17.5.2.0^2,6.0^7,12.0^22,26] hexacosa-1(25),7,9,11,19(26),20,23-heptaen-18-one]: the IC50 was determined as 2.8 nM against D2033N ROS1, 2.5 nM at wild type ROS1, 21.6 nM against G2032R ROS1 and 2.2 nM against L2026M ROS1.
Taken in the same sequence, the figures for `CC(=O)N1CCOc2ccc(F)cc2[C@H]2CCCN2c2ccn3ncc(c3n2)C1` [Compound 22, 1-[(6R)-9-fluoro-13-oxa-2,16,20,21,24-pentaazapentacyclo[16.5.2.0^2,6.0^7,12.0^21,25]pentacosa-1(24),7,9,11,18(25),19,22-heptaen-16-yl]ethan-1-one] were 397 nM, 331 nM, 3980 nM and 713 nM.
Taken in the same sequence, the figures for `C[C@H]1CNC(=O)c2cnn3ccc(nc23)N2CCC[C@@H]2c2cc(F)cn(c2=O)C1` [Compound 35, (6R,13S)-9-fluoro-13-methyl-2,11,15,19,20,23-hexaazapentacyclo [15.5.2.1^7,11.0^2,6.0^20,24]pentacosa-1(23),7,9,17(24),18,21-hexaene-16,25-dione] were 260 nM, 779 nM, 4930 nM and 589 nM.
